Measured values from patent publication US9156801B2, “2-substituted oleanolic acid derivative, method preparing for same, and application thereof” (HANGZHOU BENSHENG PHARMACEUTICAL CO., LTD., priority 2011, dated 2015).
Values after ≈ are worked out from the molar mass of the structure shown.

What was measured:
Hep G2 cell line = experiment: solid tumor cell growth inhibition, MTT; format: cell-based, human; settings: Homo sapiens; for inhibition at 16 µg/mL: HepG2, 72 h, Hep G2, 16 μg/mL compound, 72 h, read-out: IR (cell proliferation inhibition rate); for IC50: HepG2, Hep G2, 72 h
Experimental: (§1) Hep-2 (laryngeal carcinoma), A549 (human lung cancer), CaES-17 (esophageal cancer cell), PC-3 (prostate cancer), CNE (nasopharyngeal carcinoma cell), and SK-OV-3 (ovarian cancer cell), all of which are purchased from China Center For Type Culture Collection; RKO (human colon adenocarcinoma cell), MGC 803 (human gastric cancer cell), MG63 (osteosarcoma) and U87 MG (malignant glioma cell), all of which are purchased from Fuxiang Bio-tech Co. Ltd., Shanghai, China; PANC-1 (pancreatic cancer), Hep G2 (human liver cancer cell), Becap37 (human breast cancer cell), and Hela (human cervical cancer cell), all of which are donated by Cancer Research Institute of Zhejiang University, China.
(§2) Obtaining 4000 well-growing human solid tumor cells and inoculating them into wells of a 96-well cell culture plate. The culture medium is DMEM High Glucose cell culture medium containing 10% fetal bovine serum. The plate is placed in a carbon dioxide cell incubator (5% CO2) at 37° C. for 24 hours. After adding the 2-substituted oleanolic acid derivatives of different concentrations and mixing uniformly, the plate is placed in a carbon dioxide cell incubator (5% CO2) at 37° C. and incubated for 72 hours. Then the relative number of the living cells is determined by MTT method. In this experiment, the cell proliferation inhibition rate in control group (not treated with any compound) is set as 0%.

CaES-17 cell line = experiment: solid tumor cell growth inhibition, MTT; format: cell-based; settings: Homo sapiens, CaEs17; for inhibition at 16 µg/mL: CaES-17, 16 μg/mL compound, 72 h, read-out: IR (cell proliferation inhibition rate); for IC50: CaES-17, 72 h
Experimental: as §1, §2

MG-63 cell line = experiment: solid tumor cell growth inhibition, MTT; format: cell-based; settings: Homo sapiens; for IC50: MG-63, 72 h; for inhibition at 16 µg/mL: MG-63, 16 μg/mL compound, 72 h, read-out: IR (cell proliferation inhibition rate)
Experimental: as §1, §2

CNE cell line = experiment: solid tumor cell growth inhibition, MTT; format: cell-based; settings: Homo sapiens, 72 h; for inhibition at 16 µg/mL: 16 μg/mL compound, read-out: IR (cell proliferation inhibition rate)
Experimental: as §1, §2

SK-OV-3 cell line = experiment: solid tumor cell growth inhibition, MTT; format: cell-based; settings: Homo sapiens; for IC50: SK-OV-3, 72 h; for inhibition at 16 µg/mL: SK-OV-3, 16 μg/mL compound, 72 h, read-out: IR (cell proliferation inhibition rate)
Experimental: as §1, §2

Hep-2 cell line = experiment: solid tumor cell growth inhibition, MTT; format: cell-based; settings: Homo sapiens; for IC50: HEp-2, 72 h; for inhibition at 16 µg/mL: Hep-2, 16 μg/mL compound, 72 h, read-out: IR (cell proliferation inhibition rate)
Experimental: as §1, §2

PC-3 cell line = experiment: solid tumor cell growth inhibition, MTT; format: cell-based; settings: Homo sapiens; for IC50: PC-3, 72 h; for inhibition at 16 µg/mL: PC-3, 16 μg/mL compound, 72 h, read-out: IR (cell proliferation inhibition rate)
Experimental: as §1, §2

MGC 803 cell line = experiment: solid tumor cell growth inhibition, MTT; format: cell-based; settings: Homo sapiens; for inhibition at 16 µg/mL: MGC 803, 16 μg/mL compound, 72 h, read-out: IR (cell proliferation inhibition rate); for IC50: MGC 803, 72 h
Experimental: as §1, §2

A549 cell line = experiment: solid tumor cell growth inhibition, MTT; format: cell-based; settings: Homo sapiens; for IC50: A549, 72 h; for inhibition at 16 µg/mL: A549, 16 μg/mL compound, 72 h, read-out: IR (cell proliferation inhibition rate)
Experimental: as §1, §2

PANC-1 cell line = experiment: solid tumor cell growth inhibition, MTT; format: cell-based; settings: Homo sapiens; for IC50: PANC-1, 72 h; for inhibition at 16 µg/mL: PANC-1, 16 μg/mL compound, 72 h, read-out: IR (cell proliferation inhibition rate)
Experimental: as §1, §2

RKO cell line = experiment: solid tumor cell growth inhibition, MTT; format: cell-based; settings: Homo sapiens, 72 h; for inhibition at 16 µg/mL: 16 μg/mL compound, read-out: IR (cell proliferation inhibition rate)
Experimental: as §1, §2

U87 MG cell line = experiment: solid tumor cell growth inhibition, MTT; format: cell-based; settings: Homo sapiens, U-87 MG, 72 h; for inhibition at 16 µg/mL: 16 μg/mL compound, read-out: IR (cell proliferation inhibition rate)
Experimental: as §1, §2

Hela cell line = experiment: solid tumor cell growth inhibition, MTT; format: cell-based; settings: Homo sapiens, 72 h; for IC50: HeLa; for inhibition at 16 µg/mL: Hela, 16 μg/mL compound, read-out: IR (cell proliferation inhibition rate)
Experimental: as §1, §2

Becap37 cell line = experiment: solid tumor cell growth inhibition, MTT; format: cell-based; settings: Homo sapiens; for inhibition at 16 µg/mL: Becap37, 16 μg/mL compound, 72 h, read-out: IR (cell proliferation inhibition rate); for IC50: Becap37, 72 h
Experimental: as §1, §2

RPMI8226 cell line = experiment: multiple myeloma cell growth inhibition, MTT; format: cell-based; settings: Homo sapiens, RPMI-8226; for inhibition at 16 µg/mL: RPMI8226, 16 μg/mL compound, 72 h, read-out: IR (cell proliferation inhibition rate); for IC50: RPMI8226, 72 h
Experimental: Multiple myeloma cell lines: RPMI8226 (multiple myeloma), purchased from Fuxiang Bio-tech Co. Ltd., Shanghai, China.
(§3) Obtaining 6000 well-growing cells as above and inoculating them into wells of a 96-well cell culture plate. The culture medium is the 1640 cell culture medium containing 10% fetal bovine serum. After adding the 2-substituted oleanolic acid derivatives of different concentrations and mixing uniformly, placing the plate in a carbon dioxide cell incubator (5% CO2) at 37° C. and incubated for 72 hours. Then the relative number of viable cells is determined by MTT method. In this experiment, cell proliferation inhibition rate in control group (not treated with any compound) is set as 0%.

K562/adr cell line = experiment: leukemia cell growth inhibition, MTT; format: cell-based; settings: Homo sapiens, 72 h; for IC50: K562/Adr; for inhibition at 16 µg/mL: K562/adr, 16 μg/mL compound, read-out: IR (cell proliferation inhibition rate)
Source text: (§4) Leukemia cell lines: leukemia cell lines: K562/adr (drug-resistant, chronic myeloid leukemia, CML), NB4 (acute promyelocytic leukemia, AML), Kasumi-1 (acute myeloid leukemia M2 type, AML-M2), Jurkat (acute lymphoblastic leukemia, ALL), all of which are donated by Cancer Research Institute of Zhejiang University, China; and H9 (acute lymphoblastic leukemia, ALL), which is purchased from China Center for Type Culture Collection (CCTCC).
as §3, with “well-growing leukemia” for “well-growing”, “cells” for “cells as above”

Kasumi-1 cell line = experiment: leukemia cell growth inhibition, MTT; format: cell-based; settings: Homo sapiens; for inhibition at 16 µg/mL: Kasumi-1, 16 μg/mL compound, 72 h, read-out: IR (cell proliferation inhibition rate); for IC50: Kasumi-1, 72 h
Source text: as §4
as §3, with “well-growing leukemia” for “well-growing”, “cells” for “cells as above”

H9 cell line = experiment: leukemia cell growth inhibition, MTT; format: cell-based; settings: Homo sapiens; for IC50: H9, 72 h; for inhibition at 16 µg/mL: H9, 16 μg/mL compound, 72 h, read-out: IR (cell proliferation inhibition rate)
Source text: as §4
as §3, with “well-growing leukemia” for “well-growing”, “cells” for “cells as above”

NB4 cell line = experiment: leukemia cell growth inhibition, MTT; format: cell-based; settings: Homo sapiens, NB-4; for inhibition at 16 µg/mL: NB4, 16 μg/mL compound, 72 h, read-out: IR (cell proliferation inhibition rate); for IC50: NB4, 72 h
Source text: as §4
as §3, with “well-growing leukemia” for “well-growing”, “cells” for “cells as above”

Jurkat cell line = experiment: leukemia cell growth inhibition, MTT; format: cell-based; settings: Homo sapiens, 72 h; for inhibition at 16 µg/mL: 16 μg/mL compound, read-out: IR (cell proliferation inhibition rate)
Source text: as §4
as §3, with “well-growing leukemia” for “well-growing”, “cells” for “cells as above”

Structure (SMILES) | inhibition at 16 µg/mL (Hep G2 cell line) [%] | IC50 (Hep G2 cell line) [µg/mL] | inhibition at 16 µg/mL (CaES-17 cell line) [%] | IC50 (CaES-17 cell line) [µg/mL] | IC50 (MG-63 cell line) [µg/mL] | inhibition at 16 µg/mL (MG-63 cell line) [%] | inhibition at 16 µg/mL (CNE cell line) [%] | IC50 (CNE cell line) [µg/mL] | IC50 (SK-OV-3 cell line) [µg/mL] | inhibition at 16 µg/mL (SK-OV-3 cell line) [%] | IC50 (Hep-2 cell line) [µg/mL] | inhibition at 16 µg/mL (Hep-2 cell line) [%] | IC50 (PC-3 cell line) [µg/mL] | inhibition at 16 µg/mL (PC-3 cell line) [%] | inhibition at 16 µg/mL (MGC 803 cell line) [%] | IC50 (MGC 803 cell line) [µg/mL] | IC50 (A549 cell line) [µg/mL] | inhibition at 16 µg/mL (A549 cell line) [%] | IC50 (PANC-1 cell line) [µg/mL] | inhibition at 16 µg/mL (PANC-1 cell line) [%] | also measured
COC(=O)[C@]12CCC(C)(C)CC1C1=CCC3[C@@]4(C)CC(C(=O)NCCC(C)C)C(=O)C(C)(C)C4CC[C@@]3(C)[C@]1(C)CC2 (some centres unmarked) [BS-OA-031] | 6.7 | > 16 | -4.7 | > 16 | > 16 | -1.3 | 15.8 | > 16 | > 16 | 18 | > 16 | 10.5 | > 16 | 9.8 | 0.8 | > 16 | > 16 | -6.3 | > 16 | -1.4 | inhibition at 16 µg/mL (RKO cell line): -12.1%; IC50 (RKO cell line): > 16 µg/mL; inhibition at 16 µg/mL (U87 MG cell line): 5.3%; IC50 (U87 MG cell line): > 16 µg/mL; IC50 (Hela cell line): > 16 µg/mL; inhibition at 16 µg/mL (Hela cell line): 2.5%; inhibition at 16 µg/mL (Becap37 cell line): -5.8%; IC50 (Becap37 cell line): > 16 µg/mL; inhibition at 16 µg/mL (RPMI8226 cell line): 4.4%; IC50 (RPMI8226 cell line): > 16 µg/mL; IC50 (K562/adr cell line): 12.1 µg/mL (≈ 20.7 µM); inhibition at 16 µg/mL (K562/adr cell line): 62.2%; inhibition at 16 µg/mL (Kasumi-1 cell line): 10%; IC50 (Kasumi-1 cell line): > 16 µg/mL; IC50 (H9 cell line): > 16 µg/mL; inhibition at 16 µg/mL (H9 cell line): 31.9%; inhibition at 16 µg/mL (NB4 cell line): -0.9%; IC50 (NB4 cell line): > 16 µg/mL; inhibition at 16 µg/mL (Jurkat cell line): -28.5%; IC50 (Jurkat cell line): > 16 µg/mL
COC(=O)[C@]12CCC(C)(C)CC1C1=CCC3[C@@]4(C)CC(C(=O)NCCc5ccccn5)C(=O)C(C)(C)C4CC[C@@]3(C)[C@]1(C)CC2 (some centres unmarked) [BS-OA-032] | 23.7 | > 16 | 22 | > 16 | > 16 | 4.7 | 23.6 | > 16 | > 16 | 26.3 | > 16 | 5.2 | > 16 | 32.5 | 14.1 | > 16 | > 16 | -6.6 | > 16 | 14.5 | inhibition at 16 µg/mL (RKO cell line): -5.3%; IC50 (RKO cell line): > 16 µg/mL; inhibition at 16 µg/mL (U87 MG cell line): 30.4%; IC50 (U87 MG cell line): > 16 µg/mL; IC50 (Hela cell line): 15.8 µg/mL (≈ 25.7 µM); inhibition at 16 µg/mL (Hela cell line): 57%; inhibition at 16 µg/mL (Becap37 cell line): 4.1%; IC50 (Becap37 cell line): > 16 µg/mL; inhibition at 16 µg/mL (RPMI8226 cell line): 30.3%; IC50 (RPMI8226 cell line): > 16 µg/mL; IC50 (K562/adr cell line): 12.9 µg/mL (≈ 20.9 µM); inhibition at 16 µg/mL (K562/adr cell line): 63.7%; inhibition at 16 µg/mL (Kasumi-1 cell line): 48.6%; IC50 (Kasumi-1 cell line): 16 µg/mL (≈ 25.9 µM); IC50 (H9 cell line): 13.6 µg/mL (≈ 22 µM); inhibition at 16 µg/mL (H9 cell line): 62.3%; inhibition at 16 µg/mL (NB4 cell line): 85.2%; IC50 (NB4 cell line): 9.82 µg/mL (≈ 15.9 µM); inhibition at 16 µg/mL (Jurkat cell line): 75.4%; IC50 (Jurkat cell line): 10.8 µg/mL (≈ 17.6 µM)
